Source: article PMC9405596, “Evaluation of the Anti-Leishmania mexicana and -Trypanosoma brucei Activity and Mode of Action of 4,4′-(Arylmethylene)bis(3-methyl-1-phenyl-1H-pyrazol-5-ol)” (Biomedicines, 2022)
“Also recorded” adds a separate entry of the source. Where two headings read alike, the source gives them in different places.

Tests used:
[1] = test system: L. mexicana promastigotes; experiment: MTT viability assay against L. mexicana promastigotes; type: cell-based, Leishmania mexicana; conditions: for L. mexicana Promastigote SI vs. Macrophage: CC50 RAW macrophages/IC50 L. mexicana; for IC50: 48 h; for L. mexicana Promastigote SI vs. Hepatocytes: CC50 HepG2 hepatocytes/IC50 L. mexicana
Procedure: The leishmanicidal activity against promastigotes from L. mexicana was evaluated by measuring parasites’ mitochondrial activity using the MTT (Thiazolyl Blue Tetrazolium Bromide) colorimetric assay as described previously. […] The medium was renewed every third day and subcultures were prepared when parasite density reached 1 × 10^7 parasites/mL. A Neubauer chamber was used to determine parasite density.

[2] = MTT cytotoxicity assay, murine macrophages; type: cell-based; conditions: mouse, RAW 264.7 macrophage cells, RAW 264.7, 48 h
Procedure: (§1) Murine macrophages (cell line RAW 264.7, ATCC® TIB-71™) were grown in Dulbecco’s Modified Eagle Medium (DMEM) (Gibco, Invitrogen, Waltham, MA, USA) supplemented with 10% fetal bovine serum (FBS) (Eurobio) and 100 IU/mL penicillin + 100 µg/mL streptomycin (Gibco), at 37 °C, in an atmosphere containing 5% CO2. Human hepatocyte cell line HepG2 (ATCC® HB-8065™) was grown in MEM (Gibco, Invitrogen) supplemented with 10% FBS (Gibco, Invitrogen), 1% NEAA (Gibco, Invitrogen), and 1% L-glutamine (Gibco, Invitrogen). The medium was renewed twice a week. For both cell lines, the viability was determined using the MTT assay as described before for leishmanicidal activity assessment, with some variations. Here, 5 × 10^4 cells/well in a final volume of 100 µL were seeded into a 96-well plate, in triplicate for RAW macrophages and in duplicate for HepG2. Saponin (2.4 mg/mL) and untreated cells were used as positive control and negative control, respectively. Compounds were dissolved in DMSO to obtain different serial concentrations (1.56 to 800 µM) for RAW macrophages and 100–0.001 µM for HepG2. The final concentration of DMSO in each well was 0.5%. After exposure to compounds for 48 h and 72 h for RAW and HepG2 cells, respectively, 10 µL/well of MTT (5 mg/mL in PBS) was added, incubated at 37 °C for 2 h in darkness, and cells were pelleted via centrifugation at 4400 rpm for 10 min. The medium was removed, and 100 µL/well of DMSO was added to dissolve formazan. The absorbance at 570 and 630 nm was recorded following the same procedure as with parasites.

[3] = MTT cytotoxicity assay, HepG2; type: cell-based; conditions: human, HepG2 cells, HepG2, 72 h, read-out: CC50 HepG2 Hepatocytes
Procedure: as §1

[4] = test system: bloodstream form of T. b. brucei (strain 427); experiment: Bioluminescence viability assay against bloodstream T. b. brucei expressing luciferase; conditions: for activity at 10 µM / inhibition at 10 µM / IC50: 24 h; for activity at 10 µM: read-out: T. brucei bloodstream % Growth (10 µM), 10 µM, 24 h; for inhibition at 10 µM: read-out: T. brucei growth inhibition at 10 µM; for anti-T. brucei activity in preliminary screening, in words: 10 µM; for T. brucei SI vs. Hepatocytes: CC50 HepG2 hepatocytes/IC50 T. brucei; for T. brucei bloodstream SI vs. Macrophages: CC50 RAW macrophages/IC50 T. brucei
[5] = Leishmania mexicana, read-out: L. mexicana Promastigote IC50, promastigotes, 48 h, MTT
[6] = read-out: L. mexicana Promastigote IC50, promastigotes, MTT
[7] = Trypanosoma brucei, read-out: T. brucei bloodstream IC50, 24 h, bioluminescence

| SMILES | L. mexicana Promastigote SI vs. Macrophage [1] | IC50 [1, 5] [µM] | CC50 at 48 h [2] [µM] | CC50 at 72 h [3] [µM] | melting point [°C] | activity at 10 µM ([4]; Trypanosoma brucei) [%] | inhibition at 10 µM ([4]; Trypanosoma brucei) [%] | L. mexicana Promastigote SI vs. Hepatocytes [1] | anti-T. brucei activity in preliminary screening, in words [4] | IC50 [1, 6] [µM] | T. brucei SI vs. Hepatocytes [4] | T. brucei bloodstream SI vs. Macrophages [4] | IC50 [4, 7] [µM] | SI against T. brucei, range over both mammalian cell lines ([4]; murine macrophages and HepG2 hepatocytes) | IC50 ([4]; read-out: T. brucei bloodstream IC50, bioluminescence) [µM] | CC50 at 48 h ([2]; positive control) [mg/L] |
| --- | --- | --- | --- | --- | --- | --- | --- | --- | --- | --- | --- | --- | --- | --- | --- | --- |
| Cc1nn(-c2ccccc2)c(O)c1C(c1ccccc1O)c1c(C)nn(-c2ccccc2)c1O [Compound 2a] | 4.3 | 12 ± 3 | 51 ± 6 | > 100 | 219.5 to 220.6 | 77 ± 5 | 23 | – | – | – | – | – | – | – | – | – |
| COc1ccc(C(c2c(C)nn(-c3ccccc3)c2O)c2c(C)nn(-c3ccccc3)c2O)cc1O [Compound 2j] | 11.3 | 10 ± 4 | 113 ± 15 | > 100 | 200 to 202 | > 100 | – | >10 | inactive | – | – | – | – | – | – | – |
| CSc1ccc(C(c2c(C)nn(-c3ccccc3)c2O)c2c(C)nn(-c3ccccc3)c2O)cc1 [Compound 2u] | 3.2 | 30 ± 10 | 96 ± 27 | 21 ± 10 | 209.1 to 211.3 | > 100 | – | 0.7 | inactive | – | – | – | – | – | – | – |
| COc1cccc(C(c2c(C)nn(-c3ccccc3)c2O)c2c(C)nn(-c3ccccc3)c2O)c1 [Compound 2i] | 23.2 | 10 ± 3 | 232 ± 25 | > 100 | 205.7 to 207.1 | > 100 | – | >10 | inactive | – | – | – | – | – | – | – |
| Cc1nn(-c2ccccc2)c(O)c1C(c1ccc(N(C)C)cc1)c1c(C)nn(-c2ccccc2)c1O [Compound 2g] | – | > 50 | – | – | 188.8 to 189.6 | > 100 | – | – | inactive | – | – | – | – | – | – | – |
| Cc1nn(-c2ccccc2)c(O)c1C(c1ccc(O)cc1)c1c(C)nn(-c2ccccc2)c1O [Compound 2o] | – | > 50 | – | – | 217.2 to 218.9 | > 100 | 0 | – | inactive | – | – | – | – | – | – | – |
| COc1ccc(C(c2c(C)nn(-c3ccccc3)c2O)c2c(C)nn(-c3ccccc3)c2O)cc1 [Compound 2e] | – | > 50 | – | – | 176 to 177 | > 100 | – | – | inactive | – | – | – | – | – | – | – |
| Cc1nn(-c2ccccc2)c(O)c1C(c1ccc([N+](=O)[O-])cc1)c1c(C)nn(-c2ccccc2)c1O [Compound 2k] | 13 | ≤ 10 | 117 ± 15 | 15 ± 6 | – | 88 ± 4 | – | 1.7 | – | 9 ± 1 | – | – | – | – | – | – |
| Cc1nn(-c2ccccc2)c(O)c1C(c1cccc(F)c1)c1c(C)nn(-c2ccccc2)c1O [Compound 2t] | 10.5 | 11 ± 1 | 115 ± 21 | 20 ± 11 | 178 to 179 | > 100 | – | 1.8 | inactive | – | – | – | – | – | – | – |
| COc1ccccc1C(c1c(C)nn(-c2ccccc2)c1O)c1c(C)nn(-c2ccccc2)c1O [Compound 2f] | 4.2 | 22 ± 9 | 93 ± 7 | > 100 | – | ≤ 50 | – | >4.5 | – | – | >12.5 | 11.6 | 8 ± 0.27 | 11.6–18 | – | – |
| Cc1nn(-c2ccccc2)c(O)c1C(c1ccccc1C(F)(F)F)c1c(C)nn(-c2ccccc2)c1O [Compound 2v, 4,4′-[(2-trifluoromethylphenyl)methylene]bis(3-methyl-1-phenyl-1H-pyrazol-5-ol)] | 15.1 | ≤ 10 | 91 ± 18 | 21 ± 2 | 245 to 248 | – | – | 3.5 | inactive; also recorded: lacked activity | 6 ± 1 | – | – | – | – | – | – |
| COC(=O)c1ccc(C(c2c(C)nn(-c3ccccc3)c2O)c2c(C)nn(-c3ccccc3)c2O)cc1 [Compound 2q] | 8.5 | 13 ± 3 | 111 ± 2 | 29 ± 4 | – | ≤ 50 | – | 2.2 | – | – | 4.9 | 19 | 6 | – | 5.9 ± 0.6 | – |
| C[C@@H]1[C@H](O)[C@@H](C)/C=C/C=C/C=C/C=C/C=C/C=C/C=C/[C@H](O[C@@H]2O[C@H](C)[C@@H](O)[C@H](N)[C@@H]2O)C[C@@H]2O[C@](O)(C[C@@H](O)C[C@@H](O)[C@H](O)CC[C@@H](O)C[C@@H](O)CC(=O)O[C@H]1C)C[C@H](O)[C@H]2C(=O)O [Amphotericin B, reference compound] | – | 0.17 ± 0.05 | > 5 | – | – | – | – | – | – | – | – | – | – | – | – | – |
| COc1cc(C(c2c(C)nn(-c3ccccc3)c2O)c2c(C)nn(-c3ccccc3)c2O)cc(OC)c1O [Compound 2m] | 12.4 | 23 ± 5 | 286 ± 51 | > 100 | 208 to 209.5 | > 100 | – | >4.3 | inactive | – | – | – | – | – | – | – |
| Cc1nn(-c2ccccc2)c(O)c1C(c1cccc([N+](=O)[O-])c1)c1c(C)nn(-c2ccccc2)c1O [Compound 2d] | 7.5 | ≤ 10 | 75 ± 15 | > 100 | – | 73 ± 4 | – | >10 | – | 10 ± 3 | – | – | – | – | – | – |
| CC1(C)[C@@H](O[C@@H]2OC[C@H](O[C@@H]3OC[C@@H](O)[C@H](O)[C@H]3O)[C@H](O[C@H]3O[C@H](CO)[C@@H](O)[C@H](O)[C@H]3O)[C@H]2O[C@@H]2O[C@H](CO)[C@@H](O)[C@H](O)[C@H]2O[C@H]2O[C@H](CO)[C@@H](O)[C@H](O)[C@H]2O)CC[C@]2(C)[C@H]3CCC45OCC6(CC[C@@](C)(C=O)C[C@@H]64)[C@H](O)C[C@@]5(C)[C@]3(C)CC[C@@H]12 (stereo partly drawn) [Saponin, reference compound] | – | – | – | – | – | – | – | – | – | – | – | – | – | – | – | 160 ± 30 |
